According to patent US20070088033A1, “Diaryl Substituted Pyridinones” (priority 2002, published 2007):

| Compound | melting point [°C] |
| --- | --- |
| NC(=NO)c1ccc(Cn2ccc(OCc3ccccc3)c(Br)c2=O)cc1 [Example 24, 4-{[4-(benzyloxy)-3-bromo-2-oxopyridin-1(2H)-yl]methyl}-N′-hydroxybenzenecarboximidamide] | 210.2 to 212.2 |
| O=c1c(Br)c(OCc2ccccc2)ccn1Cc1cccc(C(F)(F)F)c1 [Example 31, 4-(benzyloxy)-3-bromo-1-[3-(trifluoromethyl)benzyl]pyridin-2(1H)-one] | 181.5 to 181.6 |
| O=c1cc(OCc2cccc(Cl)c2)ccn1Cc1ccccc1 [Example 45, 1-Benzyl-4-[(3-chlorobenzyl)oxy]pyridin-2(1H)-one] | 95.5 to 95.7 |
| O=C(O)c1ccc(Cn2ccc(OCc3ccccc3)c(Br)c2=O)cc1 [Example 15, 4-{[4-(benzyloxy)-3-bromo-2-oxopyridin-1(2H)-yl]methyl}benzoic acid] | 250.8 to 255.7 |
| O=c1c(Br)c(O)ccn1Cc1ccc(O)cc1 [Example 21, 3-bromo-4-hydroxy-1-(4-hydroxybenzyl)pyridin-2(1H)-one] | 102 to 108 |
| O=c1c(Br)c(OCc2ccccc2C(F)(F)F)ccn1Cc1ccccc1 [Example 47, 1-Benzyl-3-bromo-4-{[2-(trifluoromethyl)benzyl]oxy}pyridin-2(1H)-one] | 133.2 to 133.5 |
| O=c1c(Br)c(OCc2ccccc2Cl)ccn1Cc1ccccc1 [Example 43, 1-Benzyl-3-bromo-4-[(2-chlorobenzyl)oxy]pyridin-2(1H)-one] | 143.3 to 145.5 |
| Cl.O=c1c(Br)c(OCc2ccccc2)ccn1CC1CCNCC1 | 207.9 |
| Cc1ccc(Cn2ccc(OCc3ccccc3)c(Br)c2=O)cc1 [Example 2, 4-(benzyloxy)-3-bromo-1-(4-methylbenzyl)pyridin-2(1H)-one] | 150.4 to 151.2 |
| O=c1c(Br)c(OCc2c(Cl)cccc2Cl)ccn1Cc1ccccc1 [Example 461, 1-Benzyl-3-bromo-4-[2,6-(dichlorobenzyl)oxy]pyridin-2(1H)-one] | 156.3 to 157.9 |
